From EP4206196A1, “PYRIMIDINE SUBSTITUTED DERIVATIVES AS TYK2 INHIBITORS” (Almirall S.A., priority 2021, dated 2023)

Tests used:
[1] = molecular target: T1, TYK2 (JH2domain-pseudokinase) (Homo sapiens, UniProt P29597); assay: TYK2 JH2 domain binding assay (KINOMEscan)
T1 construct: TYK2 (JH2domain-pseudokinase)-tagged T7 phage strains were prepared in an E. coli host derived from the BL21 strain; made in house; host or cells: E. coli BL21-derived host (T7 phage) or HEK-293 cells
Procedure, shortened: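 Kd values come from nonlinear least-squares fits of 11-point 3-fold dilutions (mostly 30,000 nM top, lowered when Kd fell below 0.5 nM). Test compound competed with bead-bound biotinylated ligand for qPCR-tagged TYK2 pseudokinase (JH2) domain, shaken 1 h at room temperature, with about 1% final DMSO.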

[2] = test system: STAT1/3 through TYK2/JAK1; assay: IFNa induced STAT phosphorylation in HEK293 cells (SIE-bla reporter gene); type: cell-based; details: Homo sapiens, HEK293; HEK293T-sie-bla cells, IFNa at EC80, 4 hours; read-out: Inhibition of IFNa induced STAT phosphorylation HEK293 cells IC50
Procedure, shortened: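 Read-out was FRET from a β-lactamase reporter under a SIE promoter in HEK293T cells, with substrate added after a 4 h, 37°C co-incubation of compound and EC80 IFNa and left overnight in the dark. Compounds ran as 10-point 1/5 dilutions at 0.1% final DMSO; four-parameter log fit gave IC50.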

[3] = test system: STAT6 through JAK1/JAK3; assay: IL4 induced STAT phosphorylation in Ramos cells (STAT6-bla reporter gene); type: cell-based; details: Homo sapiens, Ramos; for inhibition at 5 µM: compound concentration 5 µM
Method: Stimulation of RAMOS cells with interleukine IL-4 activates the signaling pathway of STAT6 through JAK1/JAK3. In this assay, measurement of the activity of the reporter gene β-lactamase expression was used as the readout.
Ramos STAT6-bla RA-1 cell line were purchased from Life Technologies (ref. #K1243) and cultured as specified by the provider. A number of 30.000 cells per well (35 µl) were plated in a 384-well plate (Corning ref.# 3712) and cultured overnight at 37°C with 5% CO2 in a complete Optimem media (Life Technologies ref. #11058-021) containing 556 µg/mL CD40 (Life Technologies ref. #PHP0025), 0.5% (v/v) heat inactivated FBS (Life Technologies ref. #10082-147), 10 µM non-essential aminoacids NEAA (Sigma ref. #M7145), 100 µM Sodium Pyruvate (Gibco ref. #11360-039) and 100 U/mL Penicillin (Sigma ref. #P0781). Compounds were initially dissolved in 100% DMSO. Compound curves were then prepared using a 1/5 serial dilution (10 dilutions). The dilutions were directly diluted in complete Optimem media without CD40 at 40-fold their final concentration in 20% DMSO. IL-4 initial solution (Prepotech ref. #200-04) was prepared at 10-fold its EC80 in complete Optimem media without CD40. Compounds and IL-4 were added simultaneously to the wells with cells and incubated during 4 hours at 37°C (the final DMSO was 0.1%). The β-lactamase substrate (LifeTechnologies ref.#K1138) was prepared at 6-fold its final concentration as specified by the provider. Then 10 µL of the mixture was added to the wells to stop the stimulation. Plate was left in the dark over-night. Then a FRET reading was performed on an appropriate plate reader.
All experiments were analysed using an ExcelFit template and the four-parameter log equation. As % vs compound concentration. TABLE 3: Inhibition of IL4 induced STAT phosphorylation in Ramos cells.

T1 sequence (P29597 589-875 limits assumed): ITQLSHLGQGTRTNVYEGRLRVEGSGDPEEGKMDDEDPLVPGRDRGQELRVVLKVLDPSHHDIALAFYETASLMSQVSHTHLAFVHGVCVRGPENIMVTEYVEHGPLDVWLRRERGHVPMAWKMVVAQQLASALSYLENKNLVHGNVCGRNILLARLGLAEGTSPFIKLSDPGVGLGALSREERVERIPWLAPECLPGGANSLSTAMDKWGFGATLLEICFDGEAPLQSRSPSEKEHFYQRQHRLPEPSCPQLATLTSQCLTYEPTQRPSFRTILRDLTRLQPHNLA

Kd [1]	IC50 [2]	SMILES	inhibition at 25 µM ([3]; compound concentration 25 µM)	inhibition at 5 µM [3]
< 0.2 nM	< 10 nM	Cc1cc(Nc2cc(Nc3ncc(-c4cnn(C)c4C)cc3S(C)(=O)=O)ncn2)nc(C)n1 [Example 137, N4-[5-(1,5-dimethylpyrazol-4-yl)-3-methylsulfonyl-2-pyridyl]-N6-(2,6-dimethylpyrimidin-4-yl)pyrimidine-4,6-diamine]	0%	
< 0.2 nM	< 10 nM	Cc1c(-c2cnc(Nc3cc(Nc4ccc(F)cn4)ncn3)c(N(C)S(C)(=O)=O)c2)cnn1C [Example 138, N-[5-(1,5-dimethylpyrazol-4-yl)-2-[[6-[(5-fluoro-2-pyridyl)amino]pyrimidin-4-yl]amino]-3-pyridyl]-N-methyl-methanesulfonamide]		6%
< 0.2 nM	< 10 nM	Cc1c(-c2cnc(Nc3cc(NC(=O)C4CC4)ncn3)c(N(C)S(C)(=O)=O)c2)cnn1C [Example 139, N-[6-[[5-(1,5-dimethylpyrazol-4-yl)-3-[methyl(methylsulfonyl)amino]-2-pyridyl]amino]pyrimidin-4-yl]cyclopropanecarboxamide]		28%
